In brackets after ≈: the same amount, converted by molar mass.
Columns and labels:
[1] = Partition Coefficient Studies (water solubility, heptane solubility, water/heptane partition)
[2] = Stability of the 7-hydroxymethyl derivative in water; format: physicochemical
[3] = e.g., heptane; cited from earlier work
phosphodiesterase = settings: Sutherland and Rall 1958; cited from earlier work
[4] = heptane, organic solvent or mixture

SMILES | solubility ([1]; water) [mg/mL] | solubility [1, 4] [mg/mL] | Water/Heptane partition coefficient [1] | also measured
CN(C)CC(=O)OCn1cnc2c1c(=O)n(C)c(=O)n2C | > 1000 |  |  | Heptane (solubility) ([1]; heptane): < 10 mg/500 ml
CCN(CC)C(=O)CCC(=O)OCn1cnc2c1c(=O)n(C)c(=O)n2C | 26.3 (≈ 72 mM) | 0.17 (≈ 0.465 mM) |  | 
Cn1c(=O)c2c(ncn2CO)n(C)c1=O [7-hydroxymethyl derivative, 7-hydroxymethyl theophylline] |  |  |  | stability in water [2]: extremely unstable in water
CCC(=O)OCn1cnc2c1c(=O)n(C)c(=O)n2C [C2 H5, 7-Propionyloxymethyl-theophylline] | 3.87 (≈ 14.5 mM) | 0.18 (≈ 0.676 mM) | 32.0 | 
CCCC(=O)OCn1cnc2c1c(=O)n(C)c(=O)n2C [C3 H7, 7-Butanoyloxymethyl-theophylline] | 3.89 (≈ 13.9 mM) | 0.65 (≈ 2.32 mM) | 6.30 | 
CCCCCC(=O)OCn1cnc2c1c(=O)n(C)c(=O)n2C [C5 H11, 7-Hexanoyloxymethyl-theophylline] | 0.11 (≈ 0.357 mM) | 2.26 (≈ 7.33 mM) | 0.42 | 
CCCCCCCC(=O)OCn1cnc2c1c(=O)n(C)c(=O)n2C [C7 H15, 7-Octanoyloxymethyl-theophylline] | 0.12 (≈ 0.357 mM) | 0.52 (≈ 1.55 mM) | 0.06 | 
Cn1c(=O)c2c(ncn2COC(=O)C(C)(C)C)n(C)c1=O [C(CH3)3, 7-Pivalyloxymethyl-theophylline] | 2.01 (≈ 6.83 mM) | 1.55 (≈ 5.27 mM) | 1.11 | 
Cn1c(=O)c2[nH]cnc2n(C)c1=O [theophylline] |  |  |  | solubility in lipid-like solvents [3]: almost insoluble; effect on degradation of cyclic AMP by inhibiting phosphodiesterase activity (phosphodiesterase): decrease the degradation of cyclic AMP by inhibiting phosphodiesterase activity

— US4061753A, “Treating psoriasis with transient pro-drug forms of xanthine derivatives” (INTERx Research Corporation, priority 1976, dated 1977)
